Test results as given in BindingDB's records for doi:10.1021/jm950568w (Universita Di Roma, 1996).

target: T1, Gag-Pol polyprotein [588-1027]/[588-1147] (Human immunodeficiency virus 1, UniProt P04585); assay: HIV RT Assay; conditions: pH 7.8; 37 °C
T1 construct: 588-1027; 588-1147

Row | SMILES | IC50 [µM]
1 | CCOC(=O)c1cccn1S(=O)(=O)c1cc(Cl)ccc1NC=O [Ethyl 1-[(5-Chloro-2-formamidophenyl)sulfonyl]-1Hpyrrole-2-carboxylate] | > 20
2 | CCOC(=O)CC(=O)Nc1ccc(Cl)cc1S(=O)(=O)n1cccc1C(=O)OCC [ethyl 1-{[5-chloro-2-(ethyl 2-formamidoacetate)benzene]sulfonyl}-1H-pyrrole-2-carboxylate] | > 20
3 | CCOC(=O)c1cccn1S(=O)(=O)c1cc(Cl)ccc1NC(=O)CC [Ethyl 1-[(5-Chloro-2-propionamidophenyl)sulfonyl]-1H-pyrrole-2-carboxylate] | > 20
4 | CCOC(=O)c1cccn1S(=O)(=O)c1cc(Cl)ccc1NC(C)=O [ethyl 1-[(5-chloro-2-acetamidobenzene)sulfonyl]-1H-pyrrole-2-carboxylate] | > 20

target: T2, Gag-Pol polyprotein [613-1167,R896S,E946D,S1117V]/[618-1043,R896S,E946D] (Human immunodeficiency virus 2, UniProt P04584, E946D/R896S/S1117V); assay: HIV RT Assay; conditions: pH 7.8; 37 °C
T2 construct: 613-1167; 618-1043
T2 sequence (P04584 613-1167, looked up, stated change not applied): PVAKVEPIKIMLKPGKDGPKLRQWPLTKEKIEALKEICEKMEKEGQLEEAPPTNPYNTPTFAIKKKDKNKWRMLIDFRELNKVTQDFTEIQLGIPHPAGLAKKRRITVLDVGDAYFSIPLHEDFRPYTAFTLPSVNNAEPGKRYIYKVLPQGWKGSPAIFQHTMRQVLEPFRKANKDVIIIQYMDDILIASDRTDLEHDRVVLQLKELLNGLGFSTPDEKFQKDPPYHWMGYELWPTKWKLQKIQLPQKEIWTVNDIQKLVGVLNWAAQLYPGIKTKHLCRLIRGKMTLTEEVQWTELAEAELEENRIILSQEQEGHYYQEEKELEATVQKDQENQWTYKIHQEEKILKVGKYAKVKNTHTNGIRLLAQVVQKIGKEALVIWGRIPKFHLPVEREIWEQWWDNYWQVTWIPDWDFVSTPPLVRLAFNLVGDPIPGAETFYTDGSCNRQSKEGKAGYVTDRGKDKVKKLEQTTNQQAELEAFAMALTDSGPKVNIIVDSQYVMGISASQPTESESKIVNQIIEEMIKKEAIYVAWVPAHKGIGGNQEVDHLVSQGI
T2 sequence (P04584 618-1043, looked up, stated change not applied): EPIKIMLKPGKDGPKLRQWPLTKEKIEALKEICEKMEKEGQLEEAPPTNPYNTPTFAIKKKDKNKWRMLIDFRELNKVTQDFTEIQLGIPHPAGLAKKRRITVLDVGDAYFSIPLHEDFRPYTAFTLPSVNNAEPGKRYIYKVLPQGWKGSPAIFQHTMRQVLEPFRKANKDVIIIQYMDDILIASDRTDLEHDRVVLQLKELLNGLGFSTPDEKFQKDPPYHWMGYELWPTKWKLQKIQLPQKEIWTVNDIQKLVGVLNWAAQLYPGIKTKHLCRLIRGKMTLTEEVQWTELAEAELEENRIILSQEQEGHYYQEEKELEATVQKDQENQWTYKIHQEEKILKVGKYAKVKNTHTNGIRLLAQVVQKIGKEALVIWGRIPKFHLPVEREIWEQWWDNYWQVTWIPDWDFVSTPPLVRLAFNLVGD

Row | SMILES | IC50 [µM]
5 | Cc1ccnc2c1NC(=O)c1cccnc1N2C1CC1 [BI-RG-587] | > 20
6 | CCOC(=O)c1cccn1S(=O)(=O)c1cc(Cl)ccc1N [ethyl 1-[(2-amino-5-chlorobenzene)sulfonyl]-1H-pyrrole-2-carboxylate] | > 20
7 | COC(=O)c1cccn1S(=O)(=O)c1cc(Cl)ccc1N [methyl 1-[(2-amino-5-chlorobenzene)sulfonyl]-1H-pyrrole-2-carboxylate] | > 20
